Experimental data taken from US9150557B1, “Compositions and methods for the treatment of hyperglycemia” (CELLIX BIO PRIVATE LIMITED, priority 2014, dated 2015).

Test: Water solubility: distilled water added to a weighed amount until a clear solution is obtained
Format: physicochemical
Settings: for solubility: thermodynamic from solid, distilled water, weight in mg divided by volume of clear solution in mL
Procedure: Measurement of the water solubility of the test compounds is accomplished by using methods well known to those skilled in the art. Specifically, to a weighed amount of the test compound of the example compound Formula I (1-3) distilled water was added in small proportions until a clear solution was obtained. The total volume of the solution is measured. The water solubility is calculated by dividing the weight of the salt, in milligrams (mg), by the volume of the solution, in mL. […] The compound of Formula I (1-3) is therefore, at least 260 times more soluble in water than EPA itself. This is a clear indication of an unexpectedly high degree of bioavailability of the compositions of the invention. Highly water soluble medicinal preparations, when administered orally, result in efficient absorption from the gastrointestinal tract in to systemic circulation. Furthermore, water soluble preparations are especially suitable for parenteral administration.

Row | times more soluble in water than EPA (ratio of water solubility versus eicosapentaenoic acid (EPA)) | solubility | Structure (SMILES)
1 | at least 260 times | 68.6 mg/mL | CC/C=C\C/C=C\C/C=C\C/C=C\C/C=C\CCCC(=O)OCCCN1CC(O)[C@@H](O)[C@H](O)C1CO (stereo partly drawn) [Formula I (1-3)]
2 | – | < 0.2 mg/mL | CC/C=C\C/C=C\C/C=C\C/C=C\C/C=C\CCCC(=O)O [EPA, Eicosapentaenoic acid, reference compound]
